In US20070155772A1, “Use of genetic polymorphisms that associate with efficacy of treatment of inflammatory disease” (priority 2003, published 2007):
“And” between values parts separate entries of the source, which are not always exact repeats. Equal entries are not always repeated.

Legend:
[1] = system: pediatric subjects with moderate atopic dermatitis; assay: Phase IIIb trial, efficacy by Investigator global assessment (IGA) score on day 43; type: in vivo, human; conditions: for Efficacy (IGA): number of patients that experienced efficacy / Efficacy (IGA): percent of patients that experienced efficacy: IGA score of 0 or 1 on day 43
Text: The genetic locus was identified in a Phase IIIb trial that was designed as a head to head comparison of pimecrolimus cream 1% and tacrolimus ointment 0.03%. The six-week investigator-blinded trial of pediatric subjects with moderate atopic dermatitis explored the incidence of local application site reactions induced by the two topical macrolactams, as well as their efficacy, safety and cosmetic acceptability. Blood samples for pharmacogenetic analysis were collected from consenting participants in the clinical trial, to define a genetic basis for response to either treatment. Statistical analysis. Investigator global assessment (IGA) scores were used as the primary marker of efficacy in the pharmacogenetic studies. IGA scores at the end of the Investigator Blinded phase of the trial (Day 43) were used as the main time-point for comparison. Last observation carried forward imputations were only required for one subject at day 43. In this case, there was no IGA score available after Day 29, and the score on this day was used in place of a day 43 IGA score. IGA scores were re-coded, as was done to assess efficacy in the trial itself. An IGA score of 0 or 1 was considered successful treatment and IGA scores of 2-5 were counted as treatment failure. The severity of pruritus was also used as a marker of efficacy. Pruritus scores were dichotomized into absence (score=0) or presence (score=1, 2 or 3) of pruritus. The fisher's exact model was employed to examine the genotype effect on each efficacy variable. All statistical analyses were done using SAS version 8.2 software.

[2] = system: pediatric subjects with moderate atopic dermatitis; assay: Phase IIIb trial, severity of pruritus score on day 43; type: in vivo, human
Text: The genetic locus was identified in a Phase IIIb trial that was designed as a head to head comparison of pimecrolimus cream 1% and tacrolimus ointment 0.03%. The six-week investigator-blinded trial of pediatric subjects with moderate atopic dermatitis explored the incidence of local application site reactions induced by the two topical macrolactams, as well as their efficacy, safety and cosmetic acceptability. Blood samples for pharmacogenetic analysis were collected from consenting participants in the clinical trial, to define a genetic basis for response to either treatment.
Statistical analysis. Investigator global assessment (IGA) scores were used as the primary marker of efficacy in the pharmacogenetic studies. IGA scores at the end of the Investigator Blinded phase of the trial (Day 43) were used as the main time-point for comparison. Last observation carried forward imputations were only required for one subject at day 43. In this case, there was no IGA score available after Day 29, and the score on this day was used in place of a day 43 IGA score. IGA scores were re-coded, as was done to assess efficacy in the trial itself. An IGA score of 0 or 1 was considered successful treatment and IGA scores of 2-5 were counted as treatment failure. The severity of pruritus was also used as a marker of efficacy. Pruritus scores were dichotomized into absence (score=0) or presence (score=1, 2 or 3) of pruritus. The fisher's exact model was employed to examine the genotype effect on each efficacy variable. All statistical analyses were done using SAS version 8.2 software.
Association between polymorphic markers and relief from pruritus. A secondary efficacy variable used in the trial was pruritus. An analysis was done to see if ASN60THR LTA and (−1031) TNF associated with this efficacy variable (assessed on day 43).

[3] = (−1031) TNF genotype CC, day 43
[4] = (−1031) TNF genotype CT, day 43
[5] = (−1031) TNF genotype TT, day 43
[6] = ASN60THR LTA genotype AA, day 43
[7] = ASN60THR LTA genotype AC, day 43
[8] = ASN60THR LTA genotype CC, day 43
[9] = all (−1031) TNF genotypes, day 43
[10] = all ASN60THR LTA genotypes, day 43
[11] = patients with a C allele (CC or CT) at (−1031) TNF, day 43

## CC[C@@H]1/C=C(\C)C[C@H](C)C[C@H](OC)[C@H]2O[C@@](O)(C(=O)C(=O)N3CCCC[C@H]3C(=O)O[C@H](/C(C)=C/[C@@H]3CC[C@H](Cl)[C@H](OC)C3)[C@H](C)[C@@H](O)CC1=O)[C@H](C)C[C@@H]2OC [pimecrolimus]
[1]; [3]
  No success (IGA ≧ 2), number of individuals: 1
  No success (IGA ≧ 2), percent: 100%
  Success (IGA = 0 or 1), number of individuals: 0 (0%)
  Success (IGA = 0 or 1), percent: 0 (0%)
[1]; [4]
  No success (IGA ≧ 2), number of individuals: 9
  No success (IGA ≧ 2), percent: 100%
  Success (IGA = 0 or 1), number of individuals: 0
  Success (IGA = 0 or 1), percent: 100%
[1]; [5]
  No success (IGA ≧ 2), number of individuals: 4
  No success (IGA ≧ 2), percent: 33%
  Success (IGA = 0 or 1), number of individuals: 8
  Success (IGA = 0 or 1), percent: 67%
[1]; [6]
  No success (IGA ≧ 2), number of individuals: 0 (0%)
  No success (IGA ≧ 2), percent: 0 (0%)
  Success (IGA = 0 or 1), number of individuals: 3/3 and 3
  Success (IGA = 0 or 1), percent: 100%
[1]; [7]
  No success (IGA ≧ 2), number of individuals: 6
  No success (IGA ≧ 2), percent: 60%
  Success (IGA = 0 or 1), number of individuals: 4/10 and 4
  Success (IGA = 0 or 1), percent: 40%
[1]; [8]
  No success (IGA ≧ 2), number of individuals: 8
  No success (IGA ≧ 2), percent: 89%
  Success (IGA = 0 or 1), number of individuals: 1
  Success (IGA = 0 or 1), percent: 11%
[1]; LTB (TWT#128095) genotype AC
  No success (IGA ≧ 2), number of individuals: 0
  No success (IGA ≧ 2), percent: 50%
  Success (IGA = 0 or 1), number of individuals: 1
  Success (IGA = 0 or 1), percent: 100%
[1]; LTB (TWT#128095) genotype CC
  No success (IGA ≧ 2), number of individuals: 12
  No success (IGA ≧ 2), percent: 63%
  Success (IGA = 0 or 1), number of individuals: 7
  Success (IGA = 0 or 1), percent: 37%
[1]; Pharmacogenomics samples
  Efficacy (IGA): number of patients that experienced efficacy: 8
  Efficacy (IGA): percent of patients that experienced efficacy: 36%
[1]; Trial subjects
  Efficacy (IGA): number of patients that experienced efficacy: 22
  Efficacy (IGA): percent of patients that experienced efficacy: 32%
[1]; [9]
  No success (IGA ≧ 2), number of individuals, Total: 14
  Success (IGA = 0 or 1), number of individuals, Total: 8
[1]; [10]
  No success (IGA ≧ 2), number of individuals, Total: 13
  Success (IGA = 0 or 1), number of individuals, Total: 7
[1]; all LTB (TWT#128095) genotypes
  No success (IGA ≧ 2), number of individuals, Total: 12
  Success (IGA = 0 or 1), number of individuals, Total: 8
[1]; [11]
  subjects that responded to treatment (IGA): None and No patient
  success / response rate (IGA): 0%
[2]; Pharmacogenomics samples
  Pruritus (day 43) score 0, percent of subjects: 10%
  Pruritus (day 43) score 1, number of subjects: 14
  Pruritus (day 43) score 1, percent of subjects: 67%
  Pruritus (day 43) score 2, number of subjects: 3
  Pruritus (day 43) score 2, percent of subjects: 14%
  Pruritus (day 43) score 3, number of subjects: 2
  Pruritus (day 43) score 3, percent of subjects: 10%
[2]; Trial subjects
  Pruritus (day 43) score 0, number of subjects: 9
  Pruritus (day 43) score 0, percent of subjects: 13%
  Pruritus (day 43) score 1, number of subjects: 35
  Pruritus (day 43) score 1, percent of subjects: 49%
  Pruritus (day 43) score 2, number of subjects: 15
  Pruritus (day 43) score 2, percent of subjects: 21%
  Pruritus (day 43) score 3, number of subjects: 10
  Pruritus (day 43) score 3, percent of subjects: 14%
